{
  "source": "patent US6518036B1",
  "about": "“Method of permanent fluorescent assay” (Nen Life Science Products, Inc., priority 1999, dated 2003)",
  "key": {"[1]": {"target": "Horseradish peroxidase (HRP) conjugated wheat germ agglutinin (Armoracia rusticana, UniProt P00433)", "sequence (P00433 31-338 limits assumed)": "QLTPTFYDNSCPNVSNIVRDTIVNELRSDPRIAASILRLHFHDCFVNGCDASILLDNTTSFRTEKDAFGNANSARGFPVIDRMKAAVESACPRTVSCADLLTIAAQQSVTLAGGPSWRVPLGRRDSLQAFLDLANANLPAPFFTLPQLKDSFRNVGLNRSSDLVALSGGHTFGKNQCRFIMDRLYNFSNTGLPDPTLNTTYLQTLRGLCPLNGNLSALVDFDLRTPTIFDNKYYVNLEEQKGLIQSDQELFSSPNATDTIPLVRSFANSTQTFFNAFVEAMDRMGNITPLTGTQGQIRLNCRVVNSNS", "conditions": "mouse intestine section", "description": "Sections of paraffin-embedded mouse intestine were deparaffinized, and non-specific binding sites were blocked by treatment for thirty minutes in PBS-blocking buffer (PBS-BB) (0.1 M phosphate buffered saline, pH 7.2; 1.0% bovine serum albumin, 0.2% non-fat powdered milk; and 0.3% Triton X-100). Horseradish peroxidase (HRP) conjugated wheat germ agglutinin (Sigma; St. Louis, Mo.) at a concentration of 10 μg/ml in PBS-BB was incubated on the sections for one hour at room temperature. Sections were then washed in PBS (three×five minutes each wash) and Tris (0.1 M Tris, pH 8.5; three×three minutes each wash). N-(5-hydroxypentyl)-3-(p-hydroxyphenyl) propionamide (HHPA), 1 mg/ml in Tris containing 0.003% H2O2, was then added to the sections at room temperature for ten minutes. Sections were then washed in Tris (three×three minutes each wash) and mounted with Tris:Glycerol (1:1) and coverslipped. Sections were viewed with a Zeiss Axioskop microscope equipped with epifluorescence and filter sets with excitation/emission characteristics of 360 nm/>400 nm (blue-white fluorescence); 490 nm/520 nm (green fluorescence); and 550 nm/570 nm (red fluorescence). Sections were photographed with a Zeiss MC100 camera system.\nWheat germ agglutinin binds to N-acetylglucosamine residues present in abundance in intestinal mucin producing goblet cells. […] The microscopic field was then illuminated for one minute at 360 nm and reexamined as described above. […] Original magnifications 400×."}, "[2]": {"test": "Fluorescent signal stability under continuous excitation (automatic exposure time, ASA 1600)", "type": "physicochemical", "conditions": "mouse brain section", "procedure": "Sections of paraffin-embedded mouse brain were deparaffinized and non-specific binding sites were blocked by treatment for thirty minutes in PBS-BB. Monoclonal antibody against microtubule associated protein-2 (Sigma) was diluted 1:100,000 in PBS-BB and incubated on the sections overnight at 4° C. Sections were then washed in PBS (three×five minutes each wash) and incubated at room temperature for one hour with HRP-conjugated donkey anti-mouse antibodies (Jackson Immunoresearch Laboratories; West Grove, Pa.) diluted 1:1000 in PBS-BB. […]\nThe fluorescein labeled section was viewed with a filter set having excitation/emission peaks at 490 nm/520 nm. […] Photomicrographs using standard two second exposures were taken at both time points to assess changes in fluorescence intensity over time. In addition, fluorescence intensity was semi-quantitated at both time points by recording the automatic exposure time required for photomicrographic documentation in a standard field using an ASA setting of 1600 and the MC100 camera system (Zeiss). Using this measure, short exposure times correlate with bright-fluorescence and long exposure times with dim fluorescence."}},
  "data": [
    {"compound": "O=C(CCc1ccc(O)cc1)NCCCCCO", "note": "[HHPA, N-(5-hydroxypentyl)-3-(p-hydroxyphenyl) propionamide]", "values": [
      {"measurement": "fluorescence signal, blue-white filter set", "setting": "[1]; 360 nm excitation, before one minute illumination at 360 nm", "value": "weak fluorescence signal"},
      {"measurement": "fluorescent signal, all three filter sets (blue-white, green, red)", "setting": "[1]; after one minute illumination at 360 nm, localized to goblet cells", "value": "Intense fluorescent signals"},
      {"measurement": "fluorescence signal, green or red filter sets", "setting": "[1]; before one minute illumination at 360 nm", "value": "almost no signal"},
      {"measurement": "time required for a standard ASA 1600 exposure", "setting": "[2]; after fifteen minutes of continuous excitation", "value": 3.1, "unit": "s"},
      {"measurement": "time required for a standard ASA 1600 exposure", "setting": "[2]; time zero, short exposure = bright fluorescence", "value": 4.1, "unit": "s"}
    ]}
  ]
}
